Results from patent US12084462B2, “Spiro bicyclic inhibitors of menin-MLL interaction” (Janssen Pharmaceutica NV, priority 2016, dated 2024).
Values joined by “and” are separate entries in the source; they are usually repeats but may differ in a detail not shown here. Identical values can stand only once. Like-named read-outs stand apart in the source and are kept apart here.

Assays:
menin = molecular target: T1, menin (Homo sapiens, UniProt O00255, T541A); test: Menin/MLL fluorescence polarization (FP) assay; type: binding
T1 sequence (O00255 with tags, fused parts or gaps T541A): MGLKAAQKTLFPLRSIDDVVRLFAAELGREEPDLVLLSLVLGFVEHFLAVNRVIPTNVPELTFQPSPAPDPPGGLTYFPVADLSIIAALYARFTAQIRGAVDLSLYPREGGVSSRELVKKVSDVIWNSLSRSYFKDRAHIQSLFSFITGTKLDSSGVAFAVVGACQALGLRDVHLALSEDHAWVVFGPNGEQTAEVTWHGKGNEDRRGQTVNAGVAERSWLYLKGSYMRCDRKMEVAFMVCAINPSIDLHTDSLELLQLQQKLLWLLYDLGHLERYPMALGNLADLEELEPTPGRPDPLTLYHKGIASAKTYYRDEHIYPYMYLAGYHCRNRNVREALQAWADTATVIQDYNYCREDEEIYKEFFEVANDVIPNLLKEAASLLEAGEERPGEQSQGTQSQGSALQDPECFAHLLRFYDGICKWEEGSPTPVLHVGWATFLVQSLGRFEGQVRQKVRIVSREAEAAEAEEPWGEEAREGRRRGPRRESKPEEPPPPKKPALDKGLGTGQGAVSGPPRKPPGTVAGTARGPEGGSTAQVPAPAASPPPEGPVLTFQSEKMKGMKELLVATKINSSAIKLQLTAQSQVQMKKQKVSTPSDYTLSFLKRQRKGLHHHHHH
Description: 1) Menin/MLL Fluorescence Polarization Assay
To a non-surface binding, black 384-well microtiter plate was added 50 nL 160× test compound in DMSO and 4 μL 2× menin in assay buffer (40 mM Tris·HCl, pH 7.5, 50 mM NaCl, 1 mM DTT and 0.001% Tween 20). After incubation of test compound and menin for 10 min at ambient temperature, 4 μL 2×FITC-MBM1 peptide (FITC-β-alanine-SARWRFPARPGT-NH2 (SEQ ID NO: 2)) in assay buffer was added, the microtiter plate centrifuged at 1000 rpm for 1 min and the assay mixtures incubated for 15 min at ambient temperature. The relative amount of menin·FITC-MBM1 complex present in an assay mixture is determined by measuring the fluorescence polarization (FP) of the FITC label with a BMG Pherastar plate reader (ex. 485 nm/em. 520 nm) at ambient temperature. The final concentrations of reagents in the binding assay are 100 nM menin, 5 nM FITC-MBM1 peptide and 0.625% DMSO in assay buffer. Dose-response titrations of test compounds are conducted using an 11 point, three-fold serial dilution scheme, starting at 31 μM.
Compound potencies were determined by first calculating % inhibition at each compound concentration according to equation 1: % inhibition=((HC−LC)−(FP^compound−LC))/(HC−LC))*100 (Eqn 1)
Where LC and HC are the FP values of the assay in the presence or absence of a saturating concentration of a compound that competes with FITC-MBM1 for binding to menin, and FP^compound is the measured FP value in the presence of the test compound. HC and LC FP values represent an average of at least 16 replicates per plate. […] 2) Proliferation Assay

MOLM14 = test: Proliferation assay (spheroid assay) MOLM14; type: cell-based, human
Description: (§1) The anti-proliferative effect of menin/MLL protein/protein interaction inhibitor test compounds was assessed in human leukemia cell lines. The cell lines MV-4-11 and MOLM14 harbor MLL translocations and express the MLL fusion proteins MLL-AF4 and MLL-AF9, respectively, as well as the wildtype protein from the second allele. […] K562 and KG1 were used as a control cell lines containing two MLL wildtype alleles in order to exclude compounds that display general cytotoxic effects.
(§2) MV-4-11 and MOLM14 were cultured in RPMI-1640 (Sigma Aldrich) supplemented with 10% fetal bovine serum (HyClone), 2 mM L-glutamine (Sigma Aldrich) and 50 μg/ml gentamycin (Gibco). K562 were propagated in RPMI-1640 (Sigma Aldrich) supplemented with 20% fetal bovine serum (HyClone), 2 mM L-glutamine (Sigma Aldrich) and 50 μg/ml gentamycin (Gibco). KG1 were cultured in Iscove's MDM (Gibco) supplemented with 20% fetal bovine serum (HyClone), 2 mM L-glutamine (Sigma Aldrich) and 50 μg/ml gentamycin (Gibco).
(§3) In order to assess the anti-proliferative effects, 1,500 MV-4-11, 300 MOLM14, 750 K562 or 1,300 KG1 cells were seeded in 200 μl media per well in 96-well round bottom, ultra-low attachment plates (Costar, catalogue number 7007). Cell seeding numbers were chosen based on growth curves to ensure linear growth throughout the experiment. Test compounds were added at different concentrations and the DMSO content was normalized to 0.3%. Cells were incubated for 8 d at 37° C. and 5% CO2. Spheroid like growth was monitored in real-time by live-cell imaging (IncuCyteZOOM, Essenbio, 4× objective) acquiring one image every four hours for 8 d. Confluence (%) as a measure of spheroid size was determined using an integrated analysis tool.
(§4) In order to determine the cumulative effect of the test compounds over time, the area under the curve (AUC) in a plot of confluence against time was calculated. Confluence at the beginning of the experiment (t=0) was used as baseline for the AUC calculation.
(§5) Absolute IC50 values were calculated according to the following procedure: % Control=(AUC sample/AUC control)*100 AUC control=mean AUC of control values (cells without compound/DMSO as vehicle control)
(§6) A non-linear curve fit was applied using the least squares (ordinary) fit method to the plot of % control versus compound concentration. Based on this, the absolute IC50 value (half maximal inhibitory concentration of the test compound causing an anti-proliferative effect of 50% relative to the vehicle control) was calculated.

MV-4-11 = test: Proliferation assay (spheroid assay) MV-4-11; type: cell-based, human
Description: as §1, §2, §3, §4, §5, §6

[1] = averaged values over all measurements, read-out: Menin FP assay (IC50 (μM))
[2] = Homo sapiens, MOLM-14, MOLM14, averaged values, read-out: Spheroid assay MOLM14 (IC50 (μM))
[3] = Homo sapiens, MV4-11, MV-4-11, averaged values, read-out: Spheroid assay MV-4-11 (IC50 (μM))
[4] = MOLM14 (MLL-AF9), 8 d, absolute IC50 from AUC of confluence, individual measurements (not averaged), read-out: (2) Spheroid assay MOLM14 (IC50 (μM))
[5] = 100 nM menin, 5 nM FITC-MBM1 peptide, individual measurements (not averaged), read-out: (1) Menin FP assay (IC50 (μM))

Structure (SMILES)	IC50 (menin; [1])	IC50 (MOLM14; [2])	IC50 (MV-4-11; [3])	also measured
CC(C)[C@@H](C1CNC1)N1CC2(CCN(c3ncnc4sc(CC(F)(F)F)cc34)C2)C1 [Compound 200]	0.11 µM	10.3 µM	3.4 µM	
O=C(NCCO)C(c1ccccc1)N1CC2(CCN(c3ncnc4sc(CC(F)(F)F)cc34)C2)C1 (centres unmarked) [Compound 75]	2.36 µM			
FC(F)(F)Cc1cc2c(N3CCC4(CN(Cc5cn[nH]c5)C4)C3)ncnc2s1 [Compound 29]				IC50 (MOLM14; Homo sapiens, MOLM-14, 192 h, MOLM14 (MLL-AF9), 8 d, absolute IC50 from AUC of confluence, individual measurements (not averaged), read-out: (2) Spheroid assay MOLM14 (IC50 (μM))): 10.8 µM; IC50 (MOLM14; [4]): > 15 µM; IC50 (MV-4-11; MV-4-11 (MLL-AF4), 8 d, absolute IC50 from AUC of confluence, individual measurements (not averaged), read-out: (2) Spheroid assay MV-4-11 (IC50 (μM))): 1.8 µM and > 15 µM and 9.9 µM; IC50 (menin; [5]): 0.346 µM
Cc1ccc(CN2CC[C@@]3(CCN(c4ncnc5sc(CC(F)(F)F)cc45)C3)C2)cc1 (single isomer, unassigned) [Compound 289]		1.3 µM	0.21 µM	
FC(F)(F)Cc1cc2c(N3CC4(CC(OCc5ccccc5)C4)C3)ncnc2s1 [Compound 26]	0.16 µM	> 15 µM	10.4 µM	
Cn1cc2c(n1)CCCC2N1CC2(CCN(c3ncnc4sc(CC(F)(F)F)cc34)C2)C1 (centres unmarked) [Compound 133]	0.12 µM	> 15 µM	2.1 µM	
Cn1cncc1CN1CC2(CCN(c3ncnc4sc(CC(F)(F)F)cc34)C2)C1 [Compound 23]	0.95 µM			
Cn1ccc(CN2CC3(C2)CN(c2ncnc4sc(CC(F)(F)F)cc24)C3)n1 [Compound 34]	0.72 µM			
[CH3][Ge]([CH3])([CH3])[CH2]N1CC2(CCN(c3ncnc4sc(CC(F)(F)F)cc34)C2)C1 [Compound 31]	0.087 µM			
Cc1ccc(CN2CC[C@]3(CCN(c4ncnc5sc(CC(F)(F)F)cc45)C3)C2)cc1 (single isomer, unassigned) [Compound 290]		1.2 µM	0.47 µM	
FC(F)(F)Cc1cc2c(N3CCC4(CN(Cc5cncnc5)C4)C3)ncnc2s1 [Compound 10]	2.31 µM			
FC(F)(F)Cc1cc2c(N3CCC4(CN(Cc5cncc(Cl)n5)C4)C3)ncnc2s1 [Compound 11]	0.76 µM			
CC(C)NCCNC(=O)C(c1ccccc1)N1CC2(CCN(c3ncnc4sc(CC(F)(F)F)cc34)C2)C1 (centres unmarked) [Compound 74]	0.12 µM	6.1 µM	2 µM	
CC(C)n1cc(CN2CC3(CCN(c4ncnc5sc(CC(F)(F)F)cc45)C3)C2)cn1 [Compound 36]	0.4 µM			
OCc1ccccc1CN1CC2(CCN(c3ncnc4sc(CC(F)(F)F)cc34)C2)C1 [Compound 57]		8.6 µM	4.2 µM	
Cn1cc(CN2CC3(CCN(c4ncnc5sc(CC(F)(F)F)cc45)C3)C2)cn1 [Compound 30]	0.53 µM	> 15 µM	9.2 µM	
Cn1cc(CN2CC[C@@]3(CCN(c4ncnc5sc(CC(F)(F)F)cc45)C3)C2)cn1 (single isomer, unassigned) [Compound 295]		6.7 µM	1.16 µM	
Cn1cc(CN2CC3(C2)CN(c2ncnc4sc(CC(F)(F)F)cc24)C3)cn1 [Compound 28]				IC50 (MOLM14; [4]): 3.2 µM and > 15 µM; IC50 (menin; [5]): 0.517 µM
FC(F)(F)Cc1cc2c(N3CCC4(CN(Cc5cnc6ccccn56)C4)C3)ncnc2s1 [Compound 7]	0.73 µM			

Second part, led by results:

IC50 (menin; [1])	IC50 (MOLM14; [2])	IC50 (MV-4-11; [3])	Structure (SMILES)	also measured
0.84 µM			FC(F)(F)Cc1cc2c(N3CCC4(CN(Cc5ccncn5)C4)C3)ncnc2s1 [Compound 9]	
0.79 µM			FC(F)(F)Cc1cc2c(N3CCC4(CN(Cc5cnc(Cl)cn5)C4)C3)ncnc2s1 [Compound 8]	
0.84 µM			FC(F)(F)Cc1cc2c(N3CC4(CN(Cc5cn[nH]c5)C4)C3)ncnc2s1 [Compound 40]	
0.73 µM			FC(F)(F)Cc1cc2c(N3CCC4(CN(Cc5ccnnc5)C4)C3)ncnc2s1 [Compound 4]	
0.11 µM	> 15 µM	11.1 µM	O=C([C@@H]1CC(F)(F)CN1)N1CC2(C1)CN(c1ncnc3sc(CC(F)(F)F)cc13)C2 [Compound 90]	
0.99 µM			Cn1ccc(CN2CC3(CCN(c4ncnc5sc(CC(F)(F)F)cc45)C3)C2)n1 [Compound 35]	
0.49 µM	> 15 µM	9.1 µM	OCCn1cccc1CN1CC2(CCN(c3ncnc4sc(CC(F)(F)F)cc34)C2)C1 [Compound 24]	
0.81 µM			Cc1nc(N2CCCC3(CCN(Cc4ccccc4)C3)C2)c2cc(CC(F)(F)F)sc2n1 (centres unmarked) [Compound 19]	
0.11 µM	4.9 µM	2.2 µM	FC(F)(F)Cc1cc2c(N3CC4(CN(Cc5ccccc5)C4)C3)ncnc2s1 [Compound 14]	
	1.02 µM	0.32 µM	CCN1CC(C(C(C)C)N2CC3(CCN(c4ncnc5sc(CC(F)(F)F)cc45)C3)C2)C1 (centres unmarked) [Compound 303]	
0.41 µM	> 15 µM	12.9 µM	C[C@@H](c1cnn(C)c1)N1CC2(CCN(c3ncnc4sc(CC(F)(F)F)cc34)C2)C1 [Compound 199]	
0.045 µM	10.5 µM	1.3 µM	O=C([C@@H]1C[C@@H](F)CN1)N1CC2(C1)CN(c1ncnc3sc(CC(F)(F)F)cc13)C2 [Compound 89]	
0.3 µM	> 15 µM	7.3 µM	CC(c1cnn(C)c1)N1CC2(CCN(c3ncnc4sc(CC(F)(F)F)cc34)C2)C1 (centres unmarked) [Compound 197]	
0.63 µM			FC(F)(F)Cc1cc2c(N3CC4(CN(Cc5cc[nH]n5)C4)C3)ncnc2s1 [Compound 41]	
	7.3 µM	1.7 µM	CC(C1CCOCC1)N1CC2(CCN(c3ncnc4sc(CC(F)(F)F)cc34)C2)C1 (centres unmarked) [Compound 145]	
	> 15 µM	4.1 µM	CC(C)CN1CC2(C1)CN(c1ncnc3sc(CC(F)(F)F)cc13)C2 [Compound 44]	
1.07 µM			Cn1cc(C(CN)N2CC3(CCN(c4ncnc5sc(CC(F)(F)F)cc45)C3)C2)cn1 (centres unmarked) [Compound 195]	
	> 15 µM	10.1 µM	Cn1cc2c(n1)CCCC2N1CC2(CCN(c3ncnc4sc(CC(F)(F)F)cc34)C2)C1 (single isomer, unassigned) [Compound 137]	
